Assay results: paper PMC9377006, “Discovery of Desmuramylpeptide NOD2 Agonists with Single-Digit Nanomolar Potency” (ACS Medicinal Chemistry Letters, 2022)

Key:
RAW-Blue cells = test: NF-κB transcriptional response in RAW-Blue reporter cells; assay type: cell-based, mouse; settings: 1 µM, 18 h, with or without NOD2 antagonist SG84 10 µM
From the text: Given that cells of the monocyte-macrophage lineage are among the primary responders to NOD2 stimuli,[28] we also examined the effect of 40 on the NF-κB transcriptional response in RAW-Blue reporter cells. These cells, which, similarly to the HEK-Blue cells described above, stably express an NF-κB-inducible SEAP reporter gene, are derived from RAW264.7 mouse macrophages, which in addition to NOD2 also express NOD1 and most Toll-like receptors (TLRs).
Figure S4. NF-kB transcriptional response in the RAW-Blue mouse macrophage reporter cell line. […] Statistical significance was determined by one-way ANOVA followed by Bonferroni’s multiple comparisons test; ***, p < 0.001 versus vehicle-treated control; ###, p < 0.001 versus MDP, 40, or LPS alone; ns, not significant. […]
RAW-Blue cells were seeded (100,000 cells/well) in 96 -well plates in 200 µL growth medium (without Normocin and Zeocin) and treated with MDP (1 µM) or 40 (1 µM), in the presence or absence of LPS ( 10 ng/mL), or the corresponding vehicle (0.1% DMSO). […] After 2 h of incubation (37 °C), SEAP activity was determined spectrophotometrically as absorbance at 630 nm (BioTek Synergy microplate reader; Winooski, VT, USA). […]
Cytokine production was determined with BD Cytometric Bead Array human inflammatory cytokines kit […]

PBMCs = test: Cytokine release from peripheral blood mononuclear cells; assay type: cell-based; settings: human PBMCs
From the text: Encouraged by the potent NOD2 activity of 40, we preliminarily evaluated its immunostimulatory potential in human primary peripheral blood mononuclear cells (PBMCs). Specifically, we first investigated the ability of 40 to induce cytokine production in PBMCs. While activation of NOD2 alone is sufficient to elicit cytokine responses, these responses are usually of low intensity. However, NOD2 agonists can act in synergy with ligands of other innate immune receptors and proinflammatory cytokines to induce considerably stronger responses. We were particularly intrigued by the synergistic interactions between NOD2, TLR4, and IFN-γ. The synergy between NOD2 agonists and TLR4 agonists in terms of cytokine secretion, including IFN-γ, is well-established.[29],[30] Similarly, IFN-γ has previously been reported to augment the MDP-mediated activation and cytokine production by dendritic cells and macrophages.[31],[32]
Figure 2 Synergistic effects of 40 with LPS and IFN-γ on induction of cytokine production from PBMCs. Cytokine concentrations were measured after 18 h of stimulation with NOD2 agonists (1 μM) in the presence or absence of LPS (10 ng/mL) and IFN-γ (200 U/mL) or the corresponding vehicle (0.1% DMSO; NT). Data are expressed as mean ± SEM of three independent experiments. Statistical significance was determined by one-way ANOVA followed by Bonferroni’s multiple-comparisons test; *, p < 0.05, **, p < 0.01, ***, p < 0.001 versus vehicle-treated control; ##, p < 0.01, ###, p < 0.001 versus 40 or LPS alone.
Figure S5. The effect of 40 on the production of cytokines from human PBMCs is NOD2 -dependent. PBMCs were pre-incubated for 1 h in the presence or absence of the NOD2 antagonist SG84 (10 µM), before the addition of 40 (1 µM). Cytokine concentrations in supernatants were measured after 18 h stimulation.
Data are expressed as mean s ± SEM of 3 independent experiments. Statistical significance was determined by one-way ANOVA followed by Bonferroni’s multiple comparisons test; **, p < 0.01, ***, p < 0.001. […]
4.9 Cytokine release from peripheral blood mononuclear cells
Peripheral blood mononuclear cells were seeded ( 500,000 cells/well) in 24-well plates in 500 µL growth medium and treated with MDP (1 µM), 2 (1 µM), or 40 (1 µM), in the presence or absence of LPS (10 ng/mL) or IFN-γ (200 U/mL), or the corresponding vehicle (0.1% DMSO). In some wells, PBMCs were pre-treated for 1 h with the NOD2 antagonist SG84 (10 µM), before the addition of 40 (1 µM). Cell-free supernatants were collected after 18 h of incubation (37 °C, 5% CO2) and stored at -80 °C until tested.
Cytokine production was determined with BD Cytometric Bead Array human inflammatory cytokines kit (BD Bioscience) on an Attune NxT flow cytometer (Thermo Fisher Scientific, Waltham, MA, USA). Standard curves were generated using recombinant cytokines contained in the kit. The data were analyzed using the FlowJo (Tree Star, Inc., Ashland, OR, USA) and Prism (GraphPad, San Diego, CA, USA) software.

CCOC(=O)CC[C@@H](NC(=O)[C@@H](NC(=O)CNC(=O)/C=C/c1ccc(OC(=O)CC23CC4CC(CC(C4)C2)C3)c(OC)c1)C(C)C)C(=O)OCC [Compound 40]
activation of RAW-Blue cells (NF-κB transcriptional response) (RAW-Blue cells): activate RAW-Blue cells in a NOD2-dependent manner | production of IL-1β, IL-6 and TNF-α in combination with IFN-γ (PBMCs; 1 μM + IFN-γ 200 U/mL, 18 h): synergistically increased | production of IL-8 in combination with IFN-γ (PBMCs; 1 μM + IFN-γ 200 U/mL, 18 h): no apparent effect | production of IL-1β, IL-6 and TNF-α in combination with LPS (PBMCs; 1 μM + LPS 10 ng/mL, 18 h): superadditive manner | NOD2 dependence of cytokine production (PBMCs; 40 1 µM, pretreatment with NOD2 antagonist SG84 10 µM): entirely NOD2-dependent | production of IL-1β, IL-6, IL-8 and TNF-α, stimulant alone (PBMCs; 18 h, NOD2 agonists 1 μM, LPS 10 ng/mL, IFN-γ 200 U/mL): modest production
